The record followed here is ChEMBL document CHEMBL1141270, “Withanolides from Jaborosa kurtzii” (2007).

In one assay the test system is Avena sativa. The assay can be described thus: Phytotoxicity against Avena sativa assessed as inhibition of radicle length at 400 ppm. Format: functional.
In the next assay the test system is Lactuca sativa. The assay can be described thus: Phytotoxicity against Lactuca sativa assessed as inhibition in radicle length at 400 ppm. Format: functional.

One may read the inhibition as the change of the read-out against control, counted positive when it falls.

In the case of `CC1=C(C)C(=O)O[C@]2(C1)O[C@@]1(O)CC3C(CC=C4CC=CC(=O)[C@@]43C)C3CC[C@@](O)([C@@H]2C)[C@]31C` (some centres not stated) [JABOROSALACTONE 43], the inhibition at 400 ppm in the assay on Avena sativa was determined as 4%; with Lactuca sativa, 32%.
